This is an account of results in patent US8741836B2, “Polypeptides” (Novo Nordisk A/S, priority 2011, dated 2014).

Starred links: 1 amine or outer side, 2 acyl side, 3 side chain; linkers in the order of their positions; H or OH if unused. Positions of bridges follow the written chain, without caps; N, C: chain ends. Residues, ends and D or L forms follow the SMILES beside them. Groups on a side chain read outwards from the residue. *: point of attachment. C20 diacid = O=C(O)CCCCCCCCCCCCCCCCCCC(=O)*; C18 diacid = O=C(O)CCCCCCCCCCCCCCCCC(=O)*; γGlu = O=C(O)[C@H](CCC(=O)[*:2])N[*:1] Some results are limits rather than exact numbers.

The nature of series [1]: Assay (III) ThT fibrillation assay for physical stability. The class given is physicochemical. Particulars: for ThT pH 4.0 lag time: pH 4.0, ThT fibrillation assay. In short, it runs like this:
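Freshly prepared, pH-adjusted formulations with 1 μM ThT incubated at 37 °C under 960 rpm orbital shaking (1 mm), fluorescence (ex 444, em 485 nm) read every 20 min. […] Peptide content before and after measured by reverse-phase HPLC against pramlintide standard.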

Series [2] has as its system ad libitum fed rat. The series is described as follows: Assay (I) efficacy testing on appetite (food intake) using an ad libitum fed rat model. The note with it: 3 nmol/kg. Type of series: in vivo, Sprague Dawley (SD) rats. The method, boiled down:
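Ad libitum fed Sprague Dawley rats, 200-250 g, singly housed on reversed light cycle, got one ip, po or sc dose of 0.01-3 mg/kg just before lights off; groups of 5-8 with vehicle control. Food intake recorded hourly for 7 h, then at 24 h and sometimes 48 h; Grubbs outliers excluded.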

For `CC[C@H](C)[C@H](NC(=O)[C@@H]1CCCN1C(=O)CNC(=O)[C@H](Cc1ccccc1)NC(=O)[C@H](CC(N)=O)NC(=O)[C@H](CC(N)=O)NC(=O)[C@H](CO)NC(=O)[C@H](CO)NC(=O)[C@H](Cc1c[nH]cn1)NC(=O)[C@H](Cc1c[nH]cn1)NC(=O)[C@H](CC(C)C)NC(=O)[C@H](Cc1ccccc1)NC(=O)[C@H](CCC(=O)O)NC(=O)[C@H](C)NC(=O)[C@H](CC(C)C)NC(=O)[C@H](CCCNC(=N)N)NC(=O)[C@H](CCC(N)=O)NC(=O)[C@@H](NC(=O)[C@H](C)NC(=O)[C@@H]1CSSC[C@H](NC(=O)[C@@H](N)CCCCNC(=O)CC[C@H](NC(=O)CCCCCCCCCCCCCCCCCCC(=O)O)C(=O)O)C(=O)N[C@@H](CC(N)=O)C(=O)N[C@@H]([C@@H](C)O)C(=O)N[C@@H](C)C(=O)N[C@@H]([C@@H](C)O)C(=O)N1)[C@@H](C)O)C(=O)N[C@@H](CC(C)C)C(=O)N1CCC[C@H]1C(=O)N1CCC[C@H]1C(=O)N[C@H](C(=O)N[C@@H](CC(N)=O)C(=O)N[C@H](C(=O)NCC(=O)N[C@@H](CO)C(=O)N[C@@H](Cc1c[nH]cn1)C(=O)N[C@H](C(=O)N[C@@H](Cc1ccc(O)cc1)C(N)=O)[C@@H](C)O)C(C)C)[C@@H](C)O` [Example 87, N-epsilon1-[(S)-4-Carboxy-4-(19-carboxynonadecanoylamino)butyryl]-[Glu14,His17,His35]-pramlintide] (H-K([γGlu-C20 diacid])CNTATCATQRLAEFLHHSSNNFGPILPPTNVGSHTY-NH2; disulfide 2-7 (inferred); C-terminus assumed), in series [1], the “ThT pH 4.0 lag time” value turned out to be 25 h. Moreover, in series [2], the “Food intake reduction 0-24 h 3 nmol/kg (%)” value is 66% and the “Food intake reduction 24-48 h 3 nmol/kg (%)” value is given as 47%.
As to `CC[C@H](C)[C@H](NC(=O)[C@@H]1CCCN1C(=O)CNC(=O)[C@H](Cc1ccccc1)NC(=O)[C@H](CC(N)=O)NC(=O)[C@H](CC(N)=O)NC(=O)[C@H](CO)NC(=O)[C@H](CO)NC(=O)[C@H](Cc1c[nH]cn1)NC(=O)[C@H](CCCNC(=N)N)NC(=O)[C@H](CC(C)C)NC(=O)[C@H](Cc1ccccc1)NC(=O)[C@H](CCC(=O)O)NC(=O)[C@H](C)NC(=O)[C@H](CC(C)C)NC(=O)[C@H](CCCNC(=N)N)NC(=O)[C@H](CCC(N)=O)NC(=O)[C@@H](NC(=O)[C@H](C)NC(=O)[C@@H]1CSSC[C@H](NC(=O)[C@H](CCCCN)NC(=O)[C@H](Cc2c[nH]cn2)NC(=O)CC[C@H](NC(=O)CCCCCCCCCCCCCCCCC(=O)O)C(=O)O)C(=O)N[C@@H](CC(N)=O)C(=O)N[C@@H]([C@@H](C)O)C(=O)N[C@@H](C)C(=O)N[C@@H]([C@@H](C)O)C(=O)N1)[C@@H](C)O)C(=O)N[C@@H](CC(C)C)C(=O)N1CCC[C@H]1C(=O)N1CCC[C@H]1C(=O)N[C@H](C(=O)N[C@@H](CC(N)=O)C(=O)N[C@H](C(=O)NCC(=O)N[C@@H](CO)C(=O)N[C@@H](Cc1c[nH]cn1)C(=O)N[C@H](C(=O)N[C@@H](Cc1ccc(O)cc1)C(N)=O)[C@@H](C)O)C(C)C)[C@@H](C)O` [Example 71, N-alpha-[(S)-4-Carboxy-4-(17-carboxyheptadecanoylamino)butyryl]-His-[Glu14,Arg17,His35]-pramlintide] ({C18 diacid-γGlu}-HKCNTATCATQRLAEFLRHSSNNFGPILPPTNVGSHTY-NH2; disulfide 3-8 (inferred)), the “ThT pH 4.0 lag time” value in series [1] is recorded as over 45 h. Besides, in series [2], the “Food intake reduction 0-24 h 3 nmol/kg (%)” value is listed as 10% and the “Food intake reduction 24-48 h 3 nmol/kg (%)” value stood at 0%.
Turning to `CC[C@H](C)[C@H](NC(=O)[C@@H]1CCCN1C(=O)CNC(=O)[C@H](Cc1ccccc1)NC(=O)[C@H](CC(N)=O)NC(=O)[C@H](CC(N)=O)NC(=O)[C@H](CO)NC(=O)[C@H](CO)NC(=O)[C@H](Cc1c[nH]cn1)NC(=O)[C@H](CCCNC(=N)N)NC(=O)[C@H](CC(C)C)NC(=O)[C@H](Cc1ccccc1)NC(=O)[C@H](CCC(=O)O)NC(=O)[C@H](C)NC(=O)[C@H](CC(C)C)NC(=O)[C@H](CCCNC(=N)N)NC(=O)[C@H](CCC(N)=O)NC(=O)[C@@H](NC(=O)[C@H](C)NC(=O)[C@@H]1CSSC[C@H](NC(=O)[C@H](CCCCN)NC(=O)CC[C@H](NC(=O)CCCCCCCCCCCCCCCCCCC(=O)O)C(=O)O)C(=O)N[C@@H](CC(N)=O)C(=O)N[C@@H]([C@@H](C)O)C(=O)N[C@@H](C)C(=O)N[C@@H]([C@@H](C)O)C(=O)N1)[C@@H](C)O)C(=O)N[C@@H](CC(C)C)C(=O)N1CCC[C@H]1C(=O)N1CCC[C@H]1C(=O)N[C@H](C(=O)N[C@@H](CC(N)=O)C(=O)N[C@H](C(=O)NCC(=O)N[C@@H](CO)C(=O)N[C@@H](CC(N)=O)C(=O)N[C@H](C(=O)N1CCC[C@H]1C(N)=O)[C@@H](C)O)C(C)C)[C@@H](C)O` [Example 53, N-alpha-[(S)-4-Carboxy-4-(19-carboxynonadecanoylamino)butyryl]-[Glu14,Arg17,Pro37]-pramlintide], in series [1], the “ThT pH 4.0 lag time (physical stability in fibrillogenesis assay)” value is recorded as over 45 h and the “ThT pH 4.0 lag time” value was over 45 h. Further, in series [2], the “Food intake reduction 0-24 h 3 nmol/kg (%)” value is listed as 40% and the “Food intake reduction 24-48 h 3 nmol/kg (%)” value is 28%.
As for `CC[C@H](C)[C@H](NC(=O)[C@@H]1CCCN1C(=O)CNC(=O)[C@H](Cc1ccccc1)NC(=O)[C@H](CC(N)=O)NC(=O)[C@H](CC(N)=O)NC(=O)[C@H](CO)NC(=O)[C@H](CO)NC(=O)[C@H](Cc1c[nH]cn1)NC(=O)[C@H](CCCNC(=N)N)NC(=O)[C@H](CC(C)C)NC(=O)[C@H](Cc1ccccc1)NC(=O)[C@H](CCC(=O)O)NC(=O)[C@H](C)NC(=O)[C@H](CC(C)C)NC(=O)[C@H](CCCNC(=N)N)NC(=O)[C@H](CCC(N)=O)NC(=O)[C@@H](NC(=O)[C@H](C)NC(=O)[C@@H]1CSSC[C@H](NC(=O)[C@H](CCCCN)NC(=O)CC[C@H](NC(=O)CCCCCCCCCCCCCCCCCCC(=O)O)C(=O)O)C(=O)N[C@@H](CC(N)=O)C(=O)N[C@@H]([C@@H](C)O)C(=O)N[C@@H](C)C(=O)N[C@@H]([C@@H](C)O)C(=O)N1)[C@@H](C)O)C(=O)N[C@@H](CC(C)C)C(=O)N1CCC[C@H]1C(=O)N1CCC[C@H]1C(=O)N[C@H](C(=O)N[C@@H](CC(N)=O)C(=O)N[C@H](C(=O)NCC(=O)N[C@@H](CO)C(=O)N[C@@H](Cc1c[nH]cn1)C(=O)N[C@H](C(=O)N[C@@H](Cc1ccc(O)cc1)C(N)=O)[C@@H](C)O)C(C)C)[C@@H](C)O` [Example 57, N-alpha-[(S)-4-Carboxy-4-(19-carboxynonadecanoylamino)butyryl]-[Glu14,Arg17,His35]-pramlintide] ({C20 diacid-γGlu}-KCNTATCATQRLAEFLRHSSNNFGPILPPTNVGSHTY-NH2; disulfide 2-7 (inferred)), the “ThT pH 4.0 lag time” value in series [1] is given as over 45 h. In series [2], the “Food intake reduction 0-24 h 3 nmol/kg (%)” value worked out at 17% and the “Food intake reduction 24-48 h 3 nmol/kg (%)” value turned out to be 0%.
As for `CC[C@H](C)[C@H](NC(=O)[C@@H]1CCCN1C(=O)CNC(=O)[C@H](Cc1ccccc1)NC(=O)[C@H](CC(N)=O)NC(=O)[C@H](CC(N)=O)NC(=O)[C@H](CO)NC(=O)[C@H](CO)NC(=O)[C@H](Cc1c[nH]cn1)NC(=O)[C@H](CCCNC(=N)N)NC(=O)[C@H](CC(C)C)NC(=O)[C@H](Cc1ccccc1)NC(=O)[C@H](CCC(=O)O)NC(=O)[C@H](C)NC(=O)[C@H](CC(C)C)NC(=O)[C@H](CCCNC(=N)N)NC(=O)[C@H](CCC(N)=O)NC(=O)[C@@H](NC(=O)[C@H](C)NC(=O)[C@@H]1CSSC[C@H](NC(=O)[C@H](CCCCN)NC(=O)CC[C@H](NC(=O)CCCCCCCCCCCCCCCCCCC(=O)O)C(=O)O)C(=O)N[C@@H](CC(N)=O)C(=O)N[C@@H]([C@@H](C)O)C(=O)N[C@@H](C)C(=O)N[C@@H]([C@@H](C)O)C(=O)N1)[C@@H](C)O)C(=O)N[C@@H](CC(C)C)C(=O)N1CCC[C@H]1C(=O)N1CCC[C@H]1C(=O)N[C@H](C(=O)N[C@@H](CC(N)=O)C(=O)N[C@H](C(=O)NCC(=O)N[C@@H](CO)C(=O)N[C@@H](CC(N)=O)C(=O)N[C@H](C(=O)N[C@@H](Cc1ccc(O)cc1)C(N)=O)[C@@H](C)O)C(C)C)[C@@H](C)O` [Example 50, N-alpha-[(S)-4-Carboxy-4-(19-carboxynonadecanoylamino)butyryl]-[Glu14,Arg17]-pramlintide] ({C20 diacid-γGlu}-KCNTATCATQRLAEFLRHSSNNFGPILPPTNVGSNTY-NH2; disulfide 2-7 (inferred); C-terminus assumed), in series [1], the “ThT pH 4.0 lag time” value is listed as over 45 h. Also, in series [2], the “Food intake reduction 0-24 h 3 nmol/kg (%)” value was found to be 30% and the “Food intake reduction 24-48 h 3 nmol/kg (%)” value came out at 8%.
`CC[C@H](C)[C@H](NC(=O)[C@@H]1CCCN1C(=O)CNC(=O)[C@H](Cc1ccccc1)NC(=O)[C@H](CC(N)=O)NC(=O)[C@H](CC(N)=O)NC(=O)[C@H](CO)NC(=O)[C@H](CO)NC(=O)[C@H](Cc1c[nH]cn1)NC(=O)[C@H](CCCNC(=N)N)NC(=O)[C@H](CC(C)C)NC(=O)[C@H](Cc1ccccc1)NC(=O)[C@H](CCC(=O)O)NC(=O)[C@H](C)NC(=O)[C@H](CC(C)C)NC(=O)[C@H](CCCNC(=N)N)NC(=O)[C@H](CCC(N)=O)NC(=O)[C@@H](NC(=O)[C@H](C)NC(=O)[C@@H]1CSSC[C@H](NC(=O)[C@H](Cc2c[nH]cn2)NC(=O)CNC(=O)CC[C@H](NC(=O)CCCCCCCCCCCCCCCCCCC(=O)O)C(=O)O)C(=O)N[C@@H](CC(N)=O)C(=O)N[C@@H]([C@@H](C)O)C(=O)N[C@@H](C)C(=O)N[C@@H]([C@@H](C)O)C(=O)N1)[C@@H](C)O)C(=O)N[C@@H](CC(C)C)C(=O)N1CCC[C@H]1C(=O)N1CCC[C@H]1C(=O)N[C@H](C(=O)N[C@@H](CC(N)=O)C(=O)N[C@H](C(=O)NCC(=O)N[C@@H](CO)C(=O)N[C@@H](CC(N)=O)C(=O)N[C@H](C(=O)N1CCC[C@H]1C(N)=O)[C@@H](C)O)C(C)C)[C@@H](C)O` [Example 89, N-alpha-[(S)-4-Carboxy-4-(19-carboxynonadecanoylamino)butyryl]-Gly-[His1,Glu14,Arg17,Pro37]-pramlintide] ({C20 diacid-γGlu}-GHCNTATCATQRLAEFLRHSSNNFGPILPPTNVGSNTP-NH2; disulfide 3-8 (inferred)): in series [1], the “ThT pH 4.0 lag time (physical stability in fibrillogenesis assay)” value is over 45 h and the “ThT pH 4.0 lag time” value is recorded as over 45 h. Besides, in series [2], the “Food intake reduction 0-24 h 3 nmol/kg (%)” value was 42% and the “Food intake reduction 24-48 h 3 nmol/kg (%)” value is on record as 23%.
